# Laboratory results reported in US10266544B2, “Aryl substituted aminomethyl spectinomycin analogs as antibacterial agents” (ST. JUDE CHILDREN'S RESEARCH HOSPITAL, INC., priority 2013, dated 2019).
# Counter-ions that a name gives are not always drawn.
# System: live vaccine strain (LVS) of Francisella tularensis
# Assay: microbe, parasite or virus in culture
# Format: cell-based
# Settings: introduction of the methyl-linked phenyl ring
smiles,measurement,value
"CN[C@@H]1[C@H](O)[C@H](NC)[C@H]2O[C@]3(O)[C@H](O[C@@H]2[C@H]1O)O[C@H](C)C[C@@]3(O)CNCc1ccccc1 [compound 1, 3′-(R)-3′-(benzylaminomethyl)dihydrospectinomycin Trihydrochloride]",activity against Francisella tularensis LVS,well tolerated
